Data as given in patent publication US20200187507A1, “INOCULANTS INCLUDING PLANT GROWTH PRODUCING RHIZOBACTERIA (PGPR) AND INSECTIDES FOR PROMOTING PLANT GROWTH AND HEALTH” (Auburn University, priority 2018, published 2020).

Columns and labels:
Pseudomonas fluorescens = conditions: imidacloprid as cotton seed treatment; cited from earlier work
Bacillus pumilus AP 7 = experiment: Bacterial strains and insecticide compatibility (mixed in tubes, CFU counts); assay type: cell-based; conditions: Example 1; mixed for 2 wk at label rates
Experimental: The strains of Blend 20, each with a minimum concentration of 1×10^8 CFU per ml were individually evaluated for their compatibility with commonly used liquid insecticides. The strains were evaluated individually to make recovery of each bacterium apparent, as the colony morphologies are similar. Freshly prepared bacteria stock solutions were evaluated for their ability to survive being ‘tank’ mixed with insecticides in 50 ml centrifuge tubes with three different insecticides mixed together for 1 h, 24 h, and 1 wk, and 2 wk at 25 s ° C. under ambient light. The bacteria were evaluated for compatibility with insecticides which included three chemical groups: neonicotinoids, phenylpyrazoles, and pyrethroids. The pesticides evaluated were bifenthrin (Talstar Pro, FMC Corporation, Philadelphia, Pa.), fipronil (Termidor SC, BASF Corporation, Florham Park, N.J.), imidacloprid (Merit 2F, Bayer, Research Triangle Park, N.C.). […] Bifenthrin and fipronil were evaluated at high and low label rates. […] Bacterial populations (number of colony forming units [CFU]) in the suspensions were determined by plating 50 μl of the 10^−5 serial dilutions onto three TSA plates, incubating plates for 24 h and then counting the number of bacterial colonies on each plate.
Bacterial strains from multiple genera with known populations (minimum of 1×10^8 colony forming units (CFU)/ml (0.03 oz)) were evaluated individually for their compatibility with commonly turfgrass insecticides. […]
The strains that comprise Blend 20, each with aminimum concentration of 1×10^8 CFU per ml, were individually evaluated for their compatibility with commonly used liquid neonicotinoid insecticides. The strains within the blend were evaluated individually to make recovery of each bacterium apparent, as the colony morphologies are similar. Freshly prepared bacteria stock solutions were evaluated for survival when mixed with three different insecticides mixed in separate 50 mL centrifuge tubes for 1 and 24 h, and 1 and 2 wk at 25° C. under ambient light. […]

Bacillus pumilus AP 18 = experiment: as above; assay type: cell-based; conditions: Example 1; mixed for 2 wk at label rates
Experimental: (§1) The strains of Blend 20, each with a minimum concentration of 1×10^8 CFU per ml were individually evaluated for their compatibility with commonly used liquid insecticides. The strains were evaluated individually to make recovery of each bacterium apparent, as the colony morphologies are similar. Freshly prepared bacteria stock solutions were evaluated for their ability to survive being ‘tank’ mixed with insecticides in 50 ml centrifuge tubes with three different insecticides mixed together for 1 h, 24 h, and 1 wk, and 2 wk at 25 s ° C. under ambient light. The bacteria were evaluated for compatibility with insecticides which included three chemical groups: neonicotinoids, phenylpyrazoles, and pyrethroids. The pesticides evaluated were bifenthrin (Talstar Pro, FMC Corporation, Philadelphia, Pa.), fipronil (Termidor SC, BASF Corporation, Florham Park, N.J.), imidacloprid (Merit 2F, Bayer, Research Triangle Park, N.C.). While Termidor SC is not used on golf courses, it was selected for convenience because the active ingredient (Fipronil) is formulated as a granular product and widely used for mole cricket management (24). Bacteria and pesticide solutions were prepared based on the label recommendations for volume of area covered (bifenthrin, imidacloprid) or amount of active ingredient per volume needed (fipronil). Bifenthrin and fipronil were evaluated at high and low label rates. Bifenthrin was mixed at a rate of 29.6 and 14.8 ml per 92.9 m^2 (7.9% active ingredient, 302 g per 3,785 ml). Imidacloprid was mixed a rate of 17 ml per 92.9 m^2 (21.4%, 907 g per 3,785 ml). Fipronil was prepared at 47.3 (0.125% dilution) and 23.65 ml (0.06% dilution) per 3,785 ml (9.1% active ingredient, 363 g per 3,785 ml). After the allotted time, the centrifuge tubes were vigorously shaken to evenly distribute bacterial cells before serial 10-fold dilutions. Serial dilutions were made of each bacterial suspension into sterile water blanks to a final dilution of 10^−5. Bacterial populations (number of colony forming units [CFU]) in the suspensions were determined by plating 50 μl of the 10^−5 serial dilutions onto three TSA plates, incubating plates for 24 h and then counting the number of bacterial colonies on each plate.
(§2) The strains that comprise Blend 20, each with aminimum concentration of 1×10^8 CFU per ml, were individually evaluated for their compatibility with commonly used liquid neonicotinoid insecticides. The strains within the blend were evaluated individually to make recovery of each bacterium apparent, as the colony morphologies are similar. Freshly prepared bacteria stock solutions were evaluated for survival when mixed with three different insecticides mixed in separate 50 mL centrifuge tubes for 1 and 24 h, and 1 and 2 wk at 25° C. under ambient light. Bacteria and pesticide solutions were prepared based on the label recommendations for volume of area covered. The pesticides evaluated were imidacloprid (Ferti-lome® Tree and Shrub Systemic Insect Drench, 1.47% active ingredient, Voluntary Purchasing Groups, Inc., Bonham, Tex., USA), imidacloprid (Merit® 2F, 21.4% active ingredient, Bayer Environmental Sciences, Research Triangle Park, N.C., USA), and imidacloprid and clothianidin (Bayer Advanced 12 Month Tree and Shrub Protect and Feed II®, 0.74% imidacloprid and 0.37% clothianidin active ingredient, Bayer Environmental Sciences). The Ferti-lome® product was mixed at a rate of 89 mL of product per 3785 mL. Merit® 2F was mixed at a rate of 17 mL of product per 92.9 m^2. Bayer Advanced Tree and Shrub Protect and Feed II® was mixed at a rate of 89 mL of product per 3785 mL.
(§3) After the allotted time, the centrifuge tubes were vigorously shaken to evenly distribute bacterial cells before completing five serial 10-fold dilutions. Serial dilutions were made of each bacterial suspension into sterile water blanks to a final dilution of 10^−5. […]

[1] = tested on: Bacillus sphaericus AP 282; experiment: as above; assay type: cell-based; conditions: Example 1; mixed for 2 wk at label rates
Experimental: as §1, §2, §3

tawny mole crickets = experiment: Field plots: tawny mole cricket damage ratings (Cobb and Mack); assay type: in vivo, Neoscapteriscus vicinus Scudder; conditions: scale 0-9
Experimental: On 26 Mar. 2017 field plots were established at the Auburn University Turfgrass Research Unit, Auburn, Ala. over hybrid and common bermudagrass tawny mole cricket infested areas in a Marvyn loamy sand. Plots were 3 m×2 m with at least 2 m separating plots. Field plots were assessed for mole cricket damage based on the rating system of Cobb and Mack (26). A 1 m×1 m frame divided into a grid with 9 subsections was used to score the plots on a scale of 0-9, where 0 indicates no damage and 9 indicates activity in each section. After the initial assessment, plots were assigned to a treatment group based on damage ratings. […] Damage assessments were taken from seven locations (center, top left, top right, bottom left, bottom right, middle left, and middle right), with one location sampled during each damage assessment period for all treatments. The experiment evaluated four treatments, PGPR-treated (Blend 20), bifenthrin-treated, PGPR+bifenthrin-treated, and non-treated control. On 27 Mar. 2017 (Day 0) and 23 April (Day 27) plots were treated with a backpack sprayer. Bacteria-treated plots received 3 L (500 ml/m^2) freshly-prepared aqueous bacterial suspension of 1×10^7 CFU per ml. Bifenthrin-treated plots were treated at a rate of 29.6 ml per 92.9 m^2. The sprayer applied 244 ml of this mixture per plot. PGPR+ bifenthrin plots were treated with the 3 L of bacteria and 244 ml of bifenthrin mixed together in the same tank. The non-treated plots were treated with 3 L of distilled water coincident with treatment of the other plots. After treating, the plots were hand watered with 76.2 L of water (1.27 cm) to move the treatments into the root zone. The experiment was replicated six times for each treatment.
Top growth (fresh and dry mass) in the cylinder trials were analyzed separately using repeated measures of multivariate analysis of covariance (MANCOVA) due to trial being a significant factor (P<0.05, JMP Version 13. SAS Institute Inc., Cary, N.C., 1989-2007). Root fresh and dry mass, and length were analyzed using orthogonal contrasts (P<0.05, JMP Version 13. SAS Institute Inc., Cary, N.C., 1989-2007). The number of mole crickets recovered and mole cricket weights from each treatment were used as covariants. Mole cricket weights were analyzed using analysis of variance (ANOVA), Student's t-test. The number of mole crickets recovered and mole cricket weights within treatments were not significant in either PVC arena trial. For the field trial, LSMeans, Student's t-Test (LSD, P<0.05) was used to compare each sampling period's mole cricket damage ratings.

Molecule: CCOP(=S)(OCC)Oc1nc(Cl)c(Cl)cc1Cl [chlorpyriphos]
- Pseudomonas fluorescens populations when mixed with pesticide or extract (Pseudomonas fluorescens): remained stable

Molecule: CN(C)C(=S)SSC(=S)N(C)C [thiram]
- Pseudomonas fluorescens populations when mixed with pesticide or extract (Pseudomonas fluorescens): not negatively impacted

Molecule: Cc1c(COC(=O)[C@@H]2[C@H](/C=C(\Cl)C(F)(F)F)C2(C)C)cccc1-c1ccccc1 (racemic) [Bifenthrin, bifenthrin]
- bacterial populations when mixed with insecticide (Bacillus pumilus AP 7): not negatively impacted
- bacterial populations when mixed with insecticide (Bacillus pumilus AP 18): not negatively impacted
- bacterial populations when mixed with insecticide [1]: not negatively impacted
- Mean Mole Cricket Damage Rating (tawny mole crickets; 0 days after treatment): 7.52a
- Mean Mole Cricket Damage Rating (tawny mole crickets; 14 days after treatment): 7.95a
- Mean Mole Cricket Damage Rating (tawny mole crickets; 21 days after treatment): 7.14a
- Mean Mole Cricket Damage Rating (tawny mole crickets; 28 days after treatment (1 after re-treatment)): 1.71b
- Mean Mole Cricket Damage Rating (tawny mole crickets; 33 days after treatment (5 after re-treatment)): 5.10ab
- Mean Mole Cricket Damage Rating (tawny mole crickets; 42 days after treatment (15 after re-treatment)): 3.90ab
- Mean Mole Cricket Damage Rating (tawny mole crickets; 46 days after treatment (19 after re-treatment)): 1.48b
- Mean Mole Cricket Damage Rating (tawny mole crickets; 50 days after treatment (23 after re-treatment)): 1.86b
- Mean Mole Cricket Damage Rating (tawny mole crickets; 56 days after treatment (29 after re-treatment)): 4.43b

Molecule: N#Cc1nn(-c2c(Cl)cc(C(F)(F)F)cc2Cl)c(N)c1[S+]([O-])C(F)(F)F (stereo not shown) [Fipronil, fipronil]
- bacterial populations when mixed with insecticide (Bacillus pumilus AP 7): not negatively impacted
- bacterial populations when mixed with insecticide (Bacillus pumilus AP 18): not negatively impacted
- bacterial populations when mixed with insecticide [1]: not negatively impacted

Molecule: mancozeb
- Pseudomonas fluorescens populations when mixed with pesticide or extract (Pseudomonas fluorescens): negatively impacted

Molecule: COC(=O)N(C(=O)N1CO[C@@]2(C(=O)OC)Cc3cc(Cl)ccc3C2=N1)c1ccc(OC(F)(F)F)cc1 [indoxacarb]
- Pseudomonas fluorescens populations when mixed with pesticide or extract (Pseudomonas fluorescens): not

Molecule: CCCC1COC(Cn2cncn2)(c2ccc(Cl)cc2Cl)O1 (stereo not shown) [propiconazole]
- Pseudomonas fluorescens populations when mixed with pesticide or extract (Pseudomonas fluorescens): negatively impacted

Molecule: O=[N+]([O-])NC1=NCCN1Cc1ccc(Cl)nc1 [Imidacloprid, imidacloprid]
- bacterial populations when mixed with insecticide (Bacillus pumilus AP 7): not negatively impacted
- bacterial populations when mixed with insecticide (Bacillus pumilus AP 18): not negatively impacted
- bacterial populations when mixed with insecticide [1]: not negatively impacted
- Pseudomonas fluorescens populations when mixed with pesticide or extract (Pseudomonas fluorescens): negatively impacted

Molecule: O=C1C2CC=CCC2C(=O)N1SC(Cl)(Cl)Cl (stereo not shown) [captan]
- Pseudomonas fluorescens populations when mixed with pesticide or extract (Pseudomonas fluorescens): negatively impacted

Molecule: CC[C@H](C)[C@H]1O[C@]2(C=C[C@@H]1C)C[C@@H]1C[C@@H](C/C=C(\C)[C@@H](O[C@H]3C[C@H](OC)[C@@H](O[C@H]4C[C@H](OC)[C@@H](O)[C@H](C)O4)[C@H](C)O3)[C@@H](C)/C=C/C=C3\CO[C@@H]4[C@H](O)C(C)=C[C@@H](C(=O)O1)[C@]34O)O2 [avermectin]
- Pseudomonas fluorescens populations when mixed with pesticide or extract (Pseudomonas fluorescens): remained stable

Molecule: COC(=O)Nc1nc2ccccc2[nH]1 [carbendazim]
- Pseudomonas fluorescens populations when mixed with pesticide or extract (Pseudomonas fluorescens): not negatively impacted

Molecule: CNC(=O)Oc1cccc2c1OC(C)(C)C2 [carbofuran]
- Pseudomonas fluorescens populations when mixed with pesticide or extract (Pseudomonas fluorescens): remained stable
